For 32 molecules, EC50 results are on record in patent US12662469B2 (SIRONAX LTD, priority 2018, dated 2026).

In the test the test system is Cell Necrosis. Description: Cell necrosis assay / cell viability assay (necrosis inhibitor activity). The following applies: necrosis inhibitor activity; compounds outside 14-191; read-out: EC50. In kind it is cell-based.
One may read the EC50 as the concentration at which the effect is half-maximal. With `CC(C)CC(=O)Nc1nc(N2CCN(C(=O)N3N=CC[C@H]3c3cc(F)cc(F)c3)CC2)ncc1F` [Compound 291, (S)—N-(2-(4-(5-(3,5-difluorophenyl)-4,5-dihydro-1H-pyrazole-1-carbonyl)piperazin-1-yl)-5-fluoropyrimidin-4-yl)-3-methylbutanamide], the EC50 is 1 to 1000 nM.

Consider `CC(C)C(=O)Nc1nc(N2CCN(C(=O)N3N=CC[C@H]3c3cc(F)cc(F)c3)CC2)ncc1F` [Compound 292, (S)—N-(2-(4-(5-(3,5-difluorophenyl)-4,5-dihydro-1H-pyrazole-1-carbonyl)piperazin-1-yl)-5-fluoropyrimidin-4-yl)isobutyramide], for which the concentration for a half-maximal effect (EC50) lay in the range of 1 to 1000 nM. As for `O=C(Nc1nc(N2CCN(C(=O)N3N=CC[C@H]3c3cc(F)cc(F)c3)CC2)ncc1F)C1CCOCC1` [Compound 293, (S)—N-(2-(4-(5-(3,5-difluorophenyl)-4,5-dihydro-1H-pyrazole-1-carbonyl)piperazin-1-yl)-5-fluoropyrimidin-4-yl)tetrahydro-2H-pyran-4-carboxamide], the figure is 1 to 1000 nM; as for `O=C(N1CC(=Cc2ccc(Cl)nc2F)C1)N1N=CC[C@H]1c1cncc(F)c1` [Compound 294, (S)-(3-((6-chloro-2-fluoropyridin-3-yl)methylene)azetidin-1-yl)(5-(5-fluoropyridin-3-yl)-4,5-dihydro-1H-pyrazol-1-yl)methanone], 1 to 1000 nM. Regarding `NC(=O)c1ccc(C=C2CN(C(=O)N3N=CC[C@H]3c3cc(F)cc(F)c3)C2)cn1` [Compound 295, (S)-5-((1-(5-(3,5-difluorophenyl)-4,5-dihydro-1H-pyrazole-1-carbonyl)azetidin-3-ylidene)methyl)picolinamide], the concentration giving a half-maximal response (EC50) was in the range of 1 to 1000 nM. Take `O=C(N1CC(=Cc2cc3[nH]nc(F)c3cc2F)C1)N1N=CCC1c1ccccc1` (centres unmarked) [Compound 296, (3-((3,5-difluoro-1H-indazol-6-yl)methylene)azetidin-1-yl)(5-phenyl-4,5-dihydro-1H-pyrazol-1-yl)methanone]: the EC50 lay within 1 to 1000 nM.

Consider `N#Cc1cc(F)cc([C@@H]2CC=NN2C(=O)N2CC(=Cc3cc4[nH]nc(F)c4cc3F)C2)c1` [Compound 297, (S)-3-(1-(3-((3,5-difluoro-1H-indazol-6-yl)methylene)azetidine-1-carbonyl)-4,5-dihydro-1H-pyrazol-5-yl)-5-fluorobenzonitrile], for which the 50% effective concentration (EC50) fell in the range of 1 to 1000 nM. As for `Nc1ccn(CC2CN(C(=O)N3N=CC[C@H]3c3cc(F)cc(F)c3)C2)c1` [Compound 298, (S)-(3-((3-amino-H-pyrrol-1-yl)methyl)azetidin-1-yl)(5-(3,5-difluorophenyl)-4,5-dihydro-1H-pyrazol-1-yl)methanone], the figure is 1 to 1000 nM; as for `Nc1cc(F)c(F)c(C=C2CN(C(=O)N3N=CC[C@H]3c3cc(F)cc(F)c3)C2)c1` [Compound 299, (S)-(3-(5-amino-2,3-difluorobenzylidene)azetidin-1-yl)(5-(3,5-difluorophenyl)-4,5-dihydro-1H-pyrazol-1-yl)methanone], 1 to 1000 nM; as for `O=C(N1CC(=Cc2cc3[nH]nc(F)c3cc2F)C1)N1N=CC[C@H]1c1cc(F)cc(F)c1` [Compound 301, (S)-(3-((3,5-difluoro-1H-indazol-6-yl)methylene)azetidin-1-yl)(5-(3,5-difluorophenyl)-4,5-dihydro-1H-pyrazol-1-yl)methanone], 1 to 1000 nM. The figure for `O=C(N1CC(=Cc2cc3[nH]nc(F)c3cc2F)C1)N1N=CCC1c1ccccc1` (centres unmarked) [Compound 302, (3-((3,5-difluoro-1H-indazol-6-yl)methylene)azetidin-1-yl)(5-phenyl-4,5-dihydro-1H-pyrazol-1-yl)methanone] is 1 to 1000 nM; for `CNc1nc(N2CCN(C(=O)N3N=CC[C@H]3c3cc(F)cc(F)c3)CC2)ncc1F` [Compound 303, (S)-(5-(3,5-difluorophenyl)-4,5-dihydro-1H-pyrazol-1-yl)(4-(5-fluoro-4-(methylamino)pyrimidin-2-yl)piperazin-1-yl)methanone] it is 1 to 1000 nM; for `O=C(N1CC(=Cc2c(F)cc(F)cc2F)C1)N1N=CCC1c1cc(F)cc(F)c1` (centres unmarked) [Compound 304, (5-(3,5-difluorophenyl)-4,5-dihydro-1H-pyrazol-1-yl)(3-(2,4,6-trifluorobenzylidene)azetidin-1-yl)methanone] it is 1 to 1000 nM. The figure for `O=C(N1CC(=Cc2ccc(F)nc2)C1)N1N=CCC1c1cc(F)cc(F)c1` (centres unmarked) [Compound 305, (5-(3,5-difluorophenyl)-4,5-dihydro-1H-pyrazol-1-yl)(3-((6-fluoropyridin-3-yl)methylene)azetidin-1-yl)methanone] is 1 to 1000 nM.

Take `O=C(N1CC(=Cc2ccc(F)cc2)C1)N1N=CCC1c1cc(F)cc(F)c1` (centres unmarked) [Compound 306, (5-(3,5-difluorophenyl)-4,5-dihydro-1H-pyrazol-1-yl)(3-(4-fluorobenzylidene)azetidin-1-yl)methanone]: the EC50 lay in the range of 1 to 1000 nM. In the case of `O=C(N1CC(=Cc2ccc(F)nc2)C1)N1N=CCC1c1cncc(F)c1` (centres unmarked) [Compound 307, (5(5-fluoropyridin-3-yl)-4,5-dihydro-H-pyrazol-1-yl)(3-((6-fluoropyridin-3-yl)methylene)azetidin-1-yl)methanone], the EC50 was 1 to 1000 nM. Consider `O=C(N1CC(=Cc2ccc(F)cc2F)C1)N1N=CCC1c1cncc(F)c1` (centres unmarked) [Compound 308, (3-(2,4-difluorobenzylidene)azetidin-1-yl)(5-(5-fluoropyridin-3-yl)-4,5-dihydro-1H-pyrazol-1-yl)methanone], for which the concentration giving a half-maximal response (EC50) was 1 to 1000 nM. As for `O=C(N1CC(=Cc2ccc(F)cc2)C1)N1N=CCC1c1cncc(F)c1` (centres unmarked) [Compound 309, (3-(4-fluorobenzylidene)azetidin-1-yl)(5-(5-fluoropyridin-3-yl)-4,5-dihydro-1H-pyrazol-1-yl)methanone], the figure is 1 to 1000 nM; as for `O=C(N1CC(=Cc2ccc3cn[nH]c3c2)C1)N1N=CC[C@H]1c1cc(F)cc(F)c1` [Compound 310, (S)-(3-((1H-indazol-6-yl)methylene)azetidin-1-yl)(5-(3,5-difluorophenyl)-4,5-dihydro-1H-pyrazol-1-yl)methanone], 1 to 1000 nM. As for `O=C(N1CC(=Cc2ccc3oc(=O)[nH]c3c2)C1)N1N=CC[C@H]1c1cc(F)cc(F)c1` [Compound 311, (S)-5-((1(5-(3,5-difluorophenyl)-4,5-dihydro-1H-pyrazole-1-carbonyl)azetidin-3-ylidene)methyl)benzo[d]oxazol-2(3H)-one], the figure is 1 to 1000 nM; as for `O=C(N1CC(=Cc2ccc(F)cc2Cl)C1)N1N=CC[C@H]1c1cc(F)cc(F)c1` [Compound 312, (S)-(3-(2-chloro-4-fluorobenzylidene)azetidin-1-yl)(5-(3,5-difluorophenyl)-4,5-dihydro-1H-pyrazol-1-yl)methanone], 1 to 1000 nM; as for `O=C(N1CC(=Cc2ccc(Cl)cc2F)C1)N1N=CC[C@H]1c1cc(F)cc(F)c1` [Compound 313], 1 to 1000 nM. As for `O=C(N1CC(=Cc2ccc(Cl)cc2Cl)C1)N1N=CC[C@H]1c1cc(F)cc(F)c1` [Compound 314, (S)-(3-(2,4-dichlorobenzylidene)azetidin-1-yl)(5-(3,5-difluorophenyl)-4,5-dihydro-1H-pyrazol-1-yl)methanone], the figure is 1 to 1000 nM; as for `O=C(N1CC(=Cc2cnc3cn[nH]c3c2)C1)N1N=CC[C@H]1c1cc(F)cc(F)c1` [Compound 315, (S)-(3-((1H-pyrazolo[4,3-b]pyridin-6-yl)methylene)azetidin-1-yl)(5-(3,5-difluorophenyl)-4,5-dihydro-1H-pyrazol-1-yl)methanone], 1 to 1000 nM; as for `O=C(N1CC(=Cc2ccc(Cl)nc2Cl)C1)N1N=CC[C@H]1c1cc(F)cc(F)c1` [Compound 316, (S)-(3-((2,6-dichloropyridin-3-yl)methylene)azetidin-1-yl)(5-(3,5-difluorophenyl)-4,5-dihydro-1H-pyrazol-1-yl)methanone], 1 to 1000 nM. As for `CNc1cccc(C=C2CN(C(=O)N3N=CC[C@H]3c3cc(F)cc(F)c3)C2)c1` [Compound 317, (S)-(5-(3,5-difluorophenyl)-4,5-dihydro-1H-pyrazol-1-yl)(3-(3-(methylamino)benzylidene)azetidin-1-yl)methanone], the EC50 was 1 to 1000 nM. As for `O=C(N1CC(=Cc2ccc3oncc3c2)C1)N1N=CC[C@H]1c1cc(F)cc(F)c1` [Compound 318, (S)-(3-(benzo[d]isoxazol-5-ylmethylene)azetidin-1-yl)(5-(3,5-difluorophenyl)-4,5-dihydro-1H-pyrazol-1-yl)methanone], the EC50 lay in the range of 1 to 1000 nM. Regarding `N#Cc1ccc(F)c(C=C2CN(C(=O)N3N=CC[C@H]3c3cc(F)cc(F)c3)C2)c1` [Compound 319, (S)-3-((1-(5-(3,5-difluorophenyl)-4,5-dihydro-1H-pyrazole-1-carbonyl)azetidin-3-ylidene)methyl)-4-fluorobenzonitrile], the 50% effective concentration (EC50) fell in the range of 1 to 1000 nM. In the case of `NC(=O)c1ccc(F)cc1C=C1CN(C(=O)N2N=CC[C@H]2c2cc(F)cc(F)c2)C1` [Compound 320, (S)-2-((1-(5-(3,5-difluorophenyl)-4,5-dihydro-1H-pyrazole-1-carbonyl)azetidin-3-ylidene)methyl)-4-fluorobenzamide], the concentration for a half-maximal effect (EC50) fell in the range of 1 to 1000 nM. In the case of `N#Cc1cc(F)ccc1C=C1CN(C(=O)N2N=CC[C@H]2c2cc(F)cc(F)c2)C1` [Compound 321, (S)-2-((1-(5-(3,5-difluorophenyl)-4,5-dihydro-1H-pyrazole-1-carbonyl)azetidin-3-ylidene)methyl)-5-fluorobenzonitrile], the EC50 is 1 to 1000 nM.

For `O=C(N1CC(=Cc2cc3[nH]nc(F)c3cc2F)C1)N1N=CC[C@H]1c1cncc(F)c1` [Compound 322, (S)-(3-((3,5-difluoro-1H-indazol-6-yl)methylene)azetidin-1-yl)(5-(5-fluoropyridin-3-yl)-4,5-dihydro-1H-pyrazol-1-yl)methanone], the EC50 was in the range of 1 to 1000 nM. For the molecule `N#Cc1ccc(C=C2CN(C(=O)N3N=CC[C@H]3c3cc(F)cc(F)c3)C2)c(F)n1` [Compound 323, (S)-5-((1-(5-(3,5-difluorophenyl)-4,5-dihydro-1H-pyrazole-1-carbonyl)azetidin-3-ylidene)methyl)-6-fluoropicolinonitrile], the half-maximal effective concentration (EC50) fell in the range of 1 to 1000 nM.
